Columns and labels:
crude AaBGL1 [1] = target: T1, crude AaBGL1 (Aspergillus aculeatus, UniProt P48825); experiment: Substrate specificity; assay type: biochemical; parameters: P3 secretion signal (N, cleaved yes); made in house; host or cells: Schizosaccharomyces pombe ASP3326 strain (transformed with pSL6P3AaBGL1); culture supernatant, ammonium sulfate treatment and ultrafiltration, crude enzyme; conditions: 0.5% (w/v) ICOS, 0.5% (w/v) cellobiose, 1 mM pNPG, 1 mM pNP-cellobiose; for Specific activity: pH 4.5, 37° C., 10 minutes; for Relative activity: relative to cellobiose
Protocol: Measured in accordance with the activity measurement method by using various substrates. The specific activities and relative activities of the enzyme to each of 0.5% (w/v) ICOS, 0.5% (w/v) cellobiose, 1 mM pNPG, and 1 mM pNP-cellobiose are shown in Table 6.
To 100 μl of 2 mM p-nitrophenyl-β-D-cellobioside (hereinafter referred to as pNP-cellobiose), 10 μl of 1 M sodium acetate buffer solution (pH 4.5) and 40 μl of water were added, followed by addition of 50 μl of the diluted enzyme sample to cultivate for 10 minutes at 37° C. 100 μl of the reaction mixture was mixed with 100 μl of 2% sodium carbonate solution to terminate reaction, and then the amount of liberated p-nitrophenol was colorimetrically measured at a wavelength of 450 nm.
The amount of enzyme that produces 1 μmol of p-nitrophenol per minute was defined as 1 U.
(§1) To 100 μl of 1% cellobiose solution, 10 μl of 1M sodium acetate buffer solution (pH 4.5) was added, followed by addition of 90 μl of the diluted enzyme sample to cultivate for 10 minutes at 37° C. 50 μl of 1N HCl was added to terminate reaction, and then 50 μl of a neutralizing solution comprised of 1M Tris solution:2N sodium hydroxide solution in a ratio of 4:1 was added for neutralization to measure the amount of glucose in the mixture by using glucostat method (Glucose kit, Glucose CII-Test Wako, manufactured by Wako Pure Chemical Industries).
The amount of enzyme that produces 1 μmol of glucose per minute was defined as 1 U.
as §1, with “insoluble cellooligosaccharide (hereinafter referred to as ICOS)” for “cellobiose”

crude AaBGL1 [2] = target: T1, crude AaBGL1; experiment: Inhibition by various sugar; assay type: biochemical; parameters: P3 secretion signal (N, cleaved yes); made in house; culture supernatant, ammonium sulfate treatment and ultrafiltration, crude enzyme; conditions: 1 mM pNPG; for inhibition of crude AaBGL1 by the sugar (in words): 0.1 to 10 mM sugar
Protocol: To 10 μl of 20 mM p-nitrophenyl-β-D-glucoside (hereinafter abbreviated as pNPG), 10 μl of 1M sodium acetate buffer solution (pH 4.5) and 130 μl of water were added, and then 50 μl of the diluted enzyme sample was introduced for reacting them at 37° C. for 10 minutes. 100 μl of the reaction mixture was mixed with 100 μl of 2% sodium carbonate solution to terminate reaction, and then the amount of liberated p-nitrophenol was colorimetrically measured at a wavelength of 450 nm.
By using 1 mM pNPG containing various sugar (0.1 mM, 1.0 mM, 10 mM) as a substrate, the enzyme was reacted in accordance with the activity measurement method. The numerical values shown in Table 5 indicate the ratio (%) of the measured enzymatic activity to the enzymatic activity under a condition where no sugar is contained.

[3] = Optimal temperature test of the crude enzyme; assay type: biochemical; conditions: 1 mM pNPG, 50 mM acetate buffer pH 4.5, 10 minutes
Protocol: By using 1 mM pNPG as a substrate and 50 mM acetate buffer solution (pH 4.5), the enzyme was reacted for 10 minutes at each temperature. […] (FIG. 3).

Thermostability test = assay type: physicochemical; conditions: crude enzyme, treated at each temperature for 10 minutes
Protocol: The enzyme was treated at each temperature for 10 minutes, and then reacted by using 1 mM pNPG as a substrate and 50 mM acetate buffer solution (pH 4.5). […] (FIG. 5).
With regard to the each culture supernatant, the thermostability test was carried out in accordance with the thermostability measurement method described in Test Example 7 at a temperature of from 50 to 75° C.
With regard to the each purified sample, the thermostability test was carried out in accordance with the thermostability measurement method described in Test Example 7 at a temperature of from 50 to 75° C.

Glucose inhibition test = assay type: biochemical; conditions: 1 mM pNPG
Protocol: With regard to glucose inhibition, the crude enzyme obtained in Test Example 6 was compared with a commercially available β-glucosidase Novozyme 188 (manufactured by Novozymes). The glucose inhibition activity was measured in accordance with the activity measurement method by using 1 mM pNPG as a substrate and adding glucose to the reaction mixture in a concentration of from 0 to 100 mM. The reaction temperature was 37° C., the pH was 4.5, and the reaction time was 10 minutes. The other reaction conditions were the same as in the activity measurement method described in Test Example 4.
With regard to the each culture supernatant, the glucose inhibition activity was measured in accordance with the activity measurement method, by using 1 mM pNPG as a substrate and adding from 0 to 100 mM of glucose to the reaction mixture.

| Molecule | inhibition of crude AaBGL1 by the sugar (in words) (crude AaBGL1 [2]) | ratio of enzymatic activity to activity without sugar (crude AaBGL1 [2]; sugar concentration 0.1 mM) [%] | ratio of enzymatic activity to activity without sugar (crude AaBGL1 [2]; sugar concentration 1.0 mM) [%] | ratio of enzymatic activity to activity without sugar (crude AaBGL1 [2]; sugar concentration 10 mM) [%] | other results |
| --- | --- | --- | --- | --- | --- |
| O=[N+]([O-])c1ccc(O[C@@H]2O[C@H](CO)[C@@H](O[C@@H]3O[C@H](CO)[C@@H](O)[C@H](O)[C@H]3O)[C@H](O)[C@H]2O)cc1 [pNP-cellobiose, p-nitrophenyl-β-D-cellobioside] | – | – | – | – | Specific activity (crude AaBGL1 [1]): 9.3 U/mg; Relative activity (crude AaBGL1 [1]): 22% |
| O=C(CO)[C@@H](O)[C@H](O)[C@H](O)CO [Fructose] | not substantially inhibited | 99 | 106 | 115 | – |
| OC[C@H]1O[C@H](O[C@H]2[C@H](O)[C@@H](O)[C@H](O)O[C@@H]2CO)[C@H](O)[C@@H](O)[C@@H]1O [Maltose] | inhibited | 99 | 93 | 68 | – |
| O=C[C@H](O)[C@@H](O)[C@@H](O)[C@H](O)CO [Galactose] | not substantially inhibited | 97 | 98 | 101 | – |
| O=C[C@H](O)[C@@H](O)[C@H](O[C@@H]1O[C@H](CO)[C@@H](O)[C@H](O)[C@H]1O)[C@H](O)CO [Cellobiose] | – | – | – | – | Specific activity (crude AaBGL1 [1]): 42.1 U/mg; Relative activity (crude AaBGL1 [1]): 100% |
| OC[C@@H](O)[C@@H](O)[C@H](O)[C@@H](O)CO [Sorbitol] | not substantially inhibited | 98 | 99 | 101 | – |
| OC[C@H]1O[C@@H](O[C@H]2[C@H](O)[C@@H](O)C(O)O[C@@H]2CO)[C@H](O)[C@@H](O)[C@H]1O (stereo partly drawn) [Lactose] | not substantially inhibited | 99 | 100 | 100 | – |
| OC[C@H]1O[C@@](CO)(O[C@H]2O[C@H](CO)[C@@H](O)[C@H](O)[C@H]2O)[C@@H](O)[C@@H]1O [Sucrose] | not substantially inhibited | 96 | 99 | 98 | – |
| O=C[C@H](O)[C@@H](O)[C@H](O)CO [Xylose] | not substantially inhibited | 98 | 99 | 100 | – |
| O=[N+]([O-])c1ccc(O[C@@H]2O[C@H](CO)[C@@H](O)[C@H](O)[C@H]2O)cc1 [pNPG, p-nitrophenyl-β-D-glucoside] | – | – | – | – | Specific activity (crude AaBGL1 [1]): 25.7 U/mg; Relative activity (crude AaBGL1 [1]): 61% |
| AaBGL1: β-glucosidase 1 of Aspergillus aculeatus F-50 secreted by S. pombe ASP3326 strain, crude enzyme after ammonium sulfate and ultrafiltration (protein, listed as Aspergillus aculeatus) DELAFSPPFYPSPWANGQGEWAEAYQRAVAIVSQMTLDEKVNLTTGTGWELEKCVGQTGGVPRLNIGGMCLQDSPLGIRDSDYNSAFPAGVNVAATWDKNLAYLRGQAMGQEFSDKGIDVQLGPAAGPLGRSPDGGRNWEGFSPDPALTGVLFAETIKGIQDAGVVATAKHYILNEQEHFRQVAEAAGYGFNISDTISSNVDDKTIHEMYLWPFADAVRAGVGAIMCSYNQINNSYGCQNSYTLNKLLKAELGFQGFVMSDWGAHHSGVGSALAGLDMSMPGDITFDSATSFWGTNLTIAVLNGTVPQWRVDDMAVRIMAAYYKVGRDRLYQPPNFSSWTRDEYGFKYFYPQEGPYEKVNHFVNVQRNHSEVIRKLGADSTVLLKNNNALPLTGKERKVAILGEDAGSNSYGANGCSDRGCDNGTLAMAWGSGTAEFPYLVTPEQAIQAEVLKHKGSVYAITDNWALSQVETLAKQASVSLVFVNSDAGEGYISVDGNEGDRNNLTLWKNGDNLIKAAANNCNNTIVVIHSVGPVLVDEWYDHPNVTAILWAGLPGQESGNSLADVLYGRVNPGAKSPFTWGKTREAYGDYLVRELNNGNGAPQDDFSEGVFIDYRGFDKRNETPIYEFGHGLSYTTFNYSGLHIQVLNASSNAQVATETGAAPTFGQVGNASDYVYPEGLTRISKFIYPWLNSTDLKASSGDPYYGVDTAEHVPEGATDGSPQPVLPAGGGSGGNPRLYDELIRVSVTVKNTGRVAGDAVPQLYVSLGGPNEPKVVLRKFDRLTLKPSEETVWTTTLTRRDLSNWDVAAQDWVITSYPKKVHVGSSSRQLPLHAALPKVQ | – | – | – | – | optimal temperature [3]: about 65 °C; thermostability: stable until (Thermostability test): about 60 °C; resistance to glucose inhibition (comparison in words) (Glucose inhibition test; glucose 0 to 100 mM): more resistant to glucose inhibition than Novozyme 188; IC50 (Glucose inhibition test; glucose 0 to 100 mM, 37° C., pH 4.5, 10 minutes, read-out: glucose concentration (I50 value) at which 50% inhibition of the enzymatic activity occurs): 25 mM; activity maintained in the presence of glucose (Glucose inhibition test; 20 mM of glucose added): at least 50% |
